Data set [1] deals with AD169^R. Description: Virus pre-incubation / washout study. In kind it is cell-based, Human cytomegalovirus. The note with it: virus pre-incubated, compound washed out; MBX-4992 10 μM, heparin 50 μg/ml. The method, then:
(B) Based on the schematic, AD169^R (MOI 0.2) was pre-incubated with DMSO, MBX-4992, or heparin for one hour before being added to NHDF cells. Virus/compound mix was washed out after 30 minutes as indicated and either unchanged or replaced with media containing DMSO, MBX-4992, or heparin. Virus infection was quantified at 24 hpi GFP fluorescence. Percent infection was normalized to untreated cells.
NHDF cells (10^4) plated overnight in a 96-well plate were incubated at 4° C. for 30 minutes with AD169^R CMV virus pretreated with MBX-4992 (10 μM), Heparin (50 μg/mL) or DMSO for 1 hour at room temperature (in triplicate). For 2/3rd of the samples, media was aspirated and half of the wells received DMSO media, regardless of which drug the virus was exposed to, or MBX-4992 (10 μM), or Heparin (50 μg/mL) overnight. At 18 hpi, the cells were fixed with 4% paraformaldehyde, stained with a rabbit anti-IE1 antibody followed by an anti-rabbit Alexa 647, and analyzed using the Celigo cytometer. The DMSO condition that was not aspirated post binding was set as 100% infection.
To further characterize the mechanism of action, pre-incubation/washout studies were performed using AD169^R and MBX-4992. […] At 18 hpi, cells were immunostained with an anti-IE1 antibody as a readout for infection and quantified using a Celigo cytometer. […]

Data set [2] has as its system AD169^R. Description: Cells pre-incubation / washout study. In kind it is cell-based, Human cytomegalovirus. The note with it: cells pre-treated; drugs not removed or added back to washed-out cells. The method, then: (C) NHDF cells were pre-incubated with DMSO, MBX-4992 or heparin prior to virus addition. After addition of AD169^R (MOI 0.2) for 30 min, media was either unchanged or replaced with media containing DMSO, MBX-4992, or heparin. Virus infection was quantified at 24 hpi by GFP fluorescence. Percent infection was normalized to untreated cells. Statistical tests were performed using ordinary one-way ANOVA with multiple comparisons to DMSO treated cells as a control and a Dunnett's post-test: *, p<0.05; ****, p<0.0001.
NHDF cells (10^4) plated overnight in a 96-well plate were pretreated with MBX-4992 (10 μM), heparin (50 μg/mL) or DMSO for 1 hour at 37° C. The plate was then placed at 4° C. for 5 minutes followed by the addition of AD169^R CMV virus for 30 minutes. 2/3rd of the samples were aspirated post binding. Half of those samples received DMSO media, regardless of the drug the cells were previously exposed to. The remaining wells received either MBX-4992 (10 μM) or Heparin (50 μg/mL) overnight. At 18 hpi, the cells were fixed with 4% paraformaldehyde, stained with a rabbit anti-IE1 antibody followed by an anti-rabbit Alexa 647, and analyzed using the Celigo cytometer. The DMSO condition that was not aspirated post binding was set as 100% infection.
We next examined whether pre-treating cells with MBX-4992 can limit virus infection. Cells were pre-treated with MBX-4992 or heparin for […] followed by the addition of AD169^R for 30 min at 4° C. The cells were either washed out or unchanged as indicated and replaced with media containing DMSO, MBX-4992, or heparin followed by incubation at 37° C. At 18 hpi, virus infection was evaluated using a Celigo cytometer.

Data set [3] relates to NHDF cells. Description: CellTiter Glo ATP luciferase assay. In kind it is cell-based, human. The note with it: 0-50 μM, 1 or 6 days; cycloheximide 50 μg/mL. As to the method: (§1) Fibroblasts were treated with increasing concentrations of MBX-4992 and MBXC-4336 for up to 6 days and cell number was measured periodically using Hoechst stain to quantify cell proliferation (A and B). Cyclohexamide (CHX) and DMSO (−) were used as positive and negative controls for cytotoxicity respectively. Cell cytostaticity (C and D) was assessed using ATP-based CellTiter Glo luciferase assay following extended incubation with increasing concentrations of MBX-4992 and MBXC-4336 for 1 or 6 days. Relative light units (RLU) were measured following cell lysis and normalized to DMSO treated cells for each time point.
(§2) The CellTiter Glo Luminescent Assay (Promega Inc, Madison, WI) was performed according to the manufacturer's instruction. NHDF cells (10^4) were plated in a 96-well plate overnight and treated with MBX-4992 or MXC-4336 ([…]) in triplicate for up to 6 days. Cyclohexamide (50 μg/mL) was used as a control. CellTiter Glo substrate was added in a 1:1 ratio with media and CellTiter-Glo reagent followed by the analysis of luciferase activity (relative light units, RLU) using a BioTek Synergy H1 microplate reader. In parallel, an identical plate was labelled with Hoescht reagent (25 μg/mL) to quantify the cell number using a Celigo Cytometer.
(§3) Next, the cytostaticity and cytotoxicity of treatment with MBX-4992 and MBXC-4336 was analyzed. […]

The test system of data set [4] is NHDF cells. Description: Cell number by Hoechst stain (cell proliferation). Format: cell-based, human. The following applies: up to 50 μM, 6 day period; cycloheximide 50 μg/mL. As to the method:
as §1, §2, §3

Another data set has as its system TB40/E. Description: Plaque assay, MBX-4992 and ganciclovir alone and in combination. Format: cell-based, Human cytomegalovirus. The following applies: ARPE-19 and NHDF cells, 10 dpi; MBX-4992 1-20 μM, ganciclovir 2.5 μM.
Another data set has as its system HCMV AD169. Description: Herpes virus panel neutralization, HCMV AD169. The note with it: Human betaherpesvirus 5; HCMV AD169; read-out: IC50. In kind it is cell-based, Human cytomegalovirus. As to the method:
(§4) To determine the specificity of MBX-4992, additional neutralization experiments were conducted using a panel of herpes viruses performed in the presence of MBX-4992. […] Collectively, the antiviral activity of MBX-4992 is equivalent to that of GCV indicating specific inhibition of CMV replication.

A further data set deals with AD169^R (IE1 expression). Nature of the data set: Western blot (immunoblot) of IE1 expression in AD169^R-infected cells. Format: cell-based, Human cytomegalovirus. The following applies: NHDF cells, 24 hpi; MBX-4992 1-10 μM, ganciclovir 5 μM, convallotoxin 0.01 μM. As to the method: The molecular weight markers and respective proteins are indicated.
FIGS. 12A and B are Western Blot assays showing that MBXC-4336 limits expression of IE1 in fibroblasts and epithelial cells. Total cell lysates from AD169^R-infected (MOI 0.2) NHDF (A) and ARPE-19 (B) cells pre-treated with DMSO, MBX-4336 (0, 1, 5, 10, or 20 μM), or heparin (50 μg/mL) collected at 48 hpi were subjected to Western blot analysis using a rabbit anti-IE-1 antibody (lanes 1-7) and an anti-GAPDH antibody (lanes 8-14) as a loading control. The molecular weight markers and respective proteins are indicated.
Total cell lysates from virus infected NHDF cells treated with compounds were created through SDS-lysis (10^4/100 uL of 1% SDS) of at least three rounds of heating at 95° C. for 3 min and vigorous agitation. The total cell lysates were resolved using an SDS-polyacrylamide gel (12.5%), transferred to a PVDF membrane using a semi-dry apparatus. The membrane was then incubated with 1% BSA/PBS for 1 hr at room temperature followed by incubation with anti-IE1 and anti-GAPDH. Finally, the respective secondary antibody conjugated with HRP was incubated with membrane followed by detection using ECL reagents (Millipore).
Next, inhibition of the expression of IE1 in AD169^R-infected cells treated with MBX-4992 was examined by immunoblot analysis (FIG. 4E). […] Collectively, these findings further indicate that MBX-4992 effectively prevents the expression of the immediate-early genes during a CMV infection.
A general note: In western blotting, separated proteins are transferred to a membrane and probed.

The next data set has as its system MCMV Smith. Nature of the data set: Herpes virus panel neutralization, MCMV. Format: cell-based, Murine cytomegalovirus. The following applies: Murid betaherpesvirus 1; MCMV Smith; read-out: IC50. As to the method:
as §4

The subject of the next data set is AD169^R CMV virus. Description: Plaque reduction (dissemination) assay, prophylactic treatment. The note with it: 2.5 μM, 10 dpi. Format: cell-based, Human cytomegalovirus. The method, then: FIG. 8A-H are fluorescence images (A & B) and graphs showing that NAPA compounds MBX-4992 and MBXC-4336 work in both prophylactic and therapeutic settings to inhibit HCMV infection. ARPE-19 cells (A to D) and NHDF cells (E and F) treated with increasing concentrations (0, 1, 5, 20, and 50 μM) of MBX-4992, MBXC-4336, or ganciclovir (2.5 μM) were infected with AD169^R (MOI 0.025) and analyzed for viral plaques of >5,000 μm^2 (C and E) and >10,000 μm^2 (D and F) based on GFP fluorescence. The representative images of plaques from AD169^R-infected ARPE-19 cells treated MBX-4992, MBXC-4336, ganciclovir are shown (A and B). MBX-4992, MBXC-4336 (G and H), and ganciclovir treatment at 48 hpi of AD169^R-infected ARPE-19 cells (MOI 0.025) were analyzed for virus plaques >5,000 μm^2 and >10,000 μm^2 at 10 dpi. The normalized plaque number was designated to be 100 based on plaques from DMSO treated cells. Statistical tests were performed using ordinary one-way ANOVA with multiple comparisons to DMSO treated cells as a control and a Dunnett's post-test; *, p<0.05; **, p<0.01; ***, p<0.001; ****, p<0.0001.
For the prophylactic treatment analysis, the plaque assay was performed on ARPE-19 and NHDF cells (4×10^4) in a 24-well plate. The cells were pretreated for 1 hour with either MBX-4992 or MBXC-4336 (1-50 μM), DMSO, or ganciclovir (2.5 μM) and followed by virus infection with AD169^R. Following a 2-hour incubation at 37° C., the inoculum was removed and cells were overlaid with 1% low melt sea agarose. Upon solidification of the agarose, MBX-4992, MBXC-4336, DMSO, or ganciclovir in media was added at the indicated concentration. The drugs were replaced every 3 days. The cells were examined using Brightfield and GFP fluorescence to quantify the number and size of virus plaques using a Celigo Cytometer at 10 dpi.
To address whether NAPA compounds can limit virus dissemination in epithelial cells, we analyzed the inhibitory properties of MBX-4992 and MBXC-4336 using a plaque reduction assay by designating a cluster of virus infected cells as a virus plaque (Parsons et al., Antivir. Res., 193:105124 (2021)) The results are shown in FIG. 8A-H.
To evaluate the prophylactic function of the NAPA compounds, ARPE-19 cells and NHDF cells treated with DMSO, MBX-4992, MBXC-4336 (0-50 μM), or ganciclovir (2.5 μM) were infected with AD169^R CMV virus and analyzed for virus plaques at 10 dpi based on GFP fluorescence (FIG. 8A-F). A cluster of virus infected cells was designated a viral plaque based on an average cluster area of 5,000 μm^2 or 10,000 μm^2 (FIG. 8A-B) using a Celigo cytometer.

The next data set has as its system HCMV GDGr K17 (GCV^R). Nature of the data set: Herpes virus panel neutralization, GCV-resistant HCMV. The following applies: Human betaherpesvirus 5. In kind it is cell-based, Human cytomegalovirus. The method, then:
as §4

Here are results for three compounds from patent US20250177392A1, “BROAD SPECTRUM INHIBITORS OF CYTOMEGALOVIRUS” (MICROBIOTIX, INC., priority 2022, published 2025).

Usually pIC50 stands for the negative decadic logarithm of the IC50, by convention in mol/L.

pIC50: −log10 of the molar value.

Experimental for TB40/E: At 10 day post-infection, representative whole well images of plaques >10,000 μm^2 (A and B) were quantified based on GFP fluorescence intensity and calculated relative to DMSO controls (C and D). Statistical tests were performed using ordinary one-way ANOVA with multiple comparisons to DMSO treated cells as a control and a Dunnett's post-test. *, p<0.05; **, p<0.01; ***, p<0.001; ****, p<0.0001.
At 10 days post-infection, representative whole well images of plaques >10,000 μm^2 (A and B) were quantified based on GFP fluorescence intensity and calculated relative to DMSO controls (C and D).

For heparin [reference compound], the “decrease of infection after washing out” value in the data set with AD169^R [1] is recorded as “positive control for inhibition”. Further, the “virus infection, drug not removed or added back” value with AD169^R [2] is on record as “significantly inhibited virus infection”.
On to `C[C@@H]1C[C@@H]([C@H](O)CC2CC(=O)NC(=O)C2)C(=O)[C@@H](C)C1` [cycloheximide, reference compound], for which the “luciferase signal (ATP levels)” value with NHDF cells [3] is “dramatic decrease in cell number and luciferase activity”. The cell number result in the data set with NHDF cells [4] is “dramatic decrease in cell number and luciferase activity”.
As for `Nc1nc(O)c2ncn(COC(CO)CO)c2n1` [ganciclovir, reference compound], the “viral plaques >10,000 μm^2, single drug” value in the data set on TB40/E is “decreased”. Moreover, the figures for the pIC50 with HCMV AD169, in the data set on MCMV Smith and in the data set on HCMV GDGr K17 (GCV^R) were 6.05, 6.70 and 4.98, respectively. Besides, the “IE1 expression by immunoblot” value in the data set with AD169^R (IE1 expression) is “did not impact infection”. For the same compound, the “reduction of plaque number” value with AD169^R CMV virus was about 50%.
